COC(=O)C1=C(C)NC(C)=C(C(=O)OCC(C)C)C1c1ccccc1[N+](=O)[O-] (stereo not given)
solubility (mole fraction)
Conditions	278.15 K	283.15 K	288.15 K	293.15 K	298.15 K	303.15 K	308.15 K	313.15 K	318.15 K
in acetonitrile	0.00826	0.00998	0.0121	0.0145	0.0173	0.0204	0.0241	0.0281	0.0329
in ethyl acetate	0.016	0.0185	0.0214	0.0248	0.0286	0.0324	0.037	0.0419	0.0477
in isopropanol	0.00483	0.00578	0.00688	0.0081	0.00956	0.0111	0.0129	0.015	0.0172
in n-propanol	0.00367	0.00448	0.00553	0.00673	0.00811	0.0097	0.0115	0.0136	0.0162
in water	3.79e-06	5.04e-06	6.75e-06	8.67e-06	1.17e-05	1.51e-05	1.94e-05	2.47e-05	3.09e-05

Source: BigSolDB 2.1
